Measurements published in PubChem BioAssay (NCI).
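GI50 marks 50% less growth. Definition used: TGI = concentration required for complete inhibition of growth.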

Columns and labels:
Assay in all cases: NCI-60 cell line screen, 384-well format
[1] = tested on: COLO 205 colon
[2] = tested on: HCC-2998 colon
[3] = tested on: TK-10 renal
[4] = tested on: A549 NSCLC
[5] = tested on: MALME-3M melanoma
[6] = tested on: OVCAR-4 ovarian
[7] = tested on: NCI-H23 lung
[8] = tested on: MDA-MB-231 breast
[9] = tested on: HS 578T breast
[10] = tested on: SK-OV-3 ovarian
[11] = tested on: NCI-H460 NSCLC
[12] = tested on: RPMI-8226 leukemia
[13] = tested on: 786-0 renal
[14] = tested on: BT-549 breast
[15] = tested on: A498 renal
[16] = tested on: SR leukemia
[17] = tested on: HCT-116 colon
[18] = tested on: SF-539 CNS
[19] = tested on: M14 melanoma
[20] = tested on: NCI-H322M lung
[21] = tested on: K-562 leukemia
[22] = tested on: PC-3 prostate
[23] = tested on: CCRF-CEM leukemia
[24] = tested on: DU-145 prostate
[25] = tested on: SF-268 CNS
[26] = tested on: SK-MEL-5 melanoma
[27] = tested on: HCT-15 colon
[28] = tested on: OVCAR-3 ovarian
[29] = tested on: SNB-19 CNS
[30] = tested on: SNB-75 CNS
[31] = tested on: LOX IMVI melanoma
[32] = tested on: HL-60(TB) leukemia
[33] = tested on: SW-620 colon
[34] = tested on: T-47D breast
[35] = tested on: EKVX NSCLC
[36] = tested on: UACC-257 melanoma
[37] = tested on: SF-295 CNS
[38] = tested on: IGROV1 ovarian
[39] = tested on: HT29 colon
[40] = tested on: HOP-92 NSCLC
[41] = tested on: RXF 393 renal
[42] = tested on: CAKI-1 renal
[43] = tested on: SK-MEL-28 melanoma
[44] = tested on: MDA-MB-468 breast
[45] = tested on: OVCAR-8 ovarian
[46] = tested on: SN12C renal
[47] = tested on: MCF7 breast
[48] = tested on: NCI-H522 lung
[49] = tested on: MDA-MB-435 melanoma
[50] = tested on: KM12 colon
[51] = tested on: NCI-H226 lung
[52] = tested on: HOP-62 NSCLC
[53] = tested on: ACHN renal
[54] = tested on: MOLT-4 leukemia
[55] = tested on: NCI/ADR-RES ovarian
[56] = tested on: U251 glioblastoma

Nc1ccccc1NC(=O)c1ccc(CNc2nccc(-c3cccnc3)n2)cc1
GI50 [1]: 292 nM | TGI [1]: 741 nM | GI50 [2]: 342 nM | TGI [2]: 1200 nM | GI50 [3]: 244 nM | TGI [3]: 1180 nM | GI50 [4]: 621 nM | TGI [4]: 2370 nM | GI50 [5]: 150 nM | TGI [5]: 298 nM | GI50 [6]: 371 nM | TGI [6]: 1670 nM | GI50 [7]: 248 nM | TGI [7]: 1320 nM | GI50 [8]: 371 nM | TGI [8]: 3250 nM | GI50 [9]: 217 nM | TGI [9]: 498 nM | GI50 [10]: 258 nM | TGI [10]: 1380 nM | GI50 [11]: 216 nM | TGI [11]: 1300 nM | GI50 [12]: 28.2 nM | TGI [12]: 75.2 nM | GI50 [13]: 390 nM | TGI [13]: 2360 nM | GI50 [14]: 497 nM | TGI [14]: 2390 nM | GI50 [15]: 261 nM | TGI [15]: 1110 nM | GI50 [16]: 32.6 nM | TGI [16]: 148 nM | GI50 [17]: 136 nM | TGI [17]: 350 nM | GI50 [18]: 473 nM | TGI [18]: 2490 nM | GI50 [19]: 456 nM | TGI [19]: 1640 nM | GI50 [20]: 410 nM | TGI [20]: 1790 nM | GI50 [21]: 120 nM | TGI [21]: 357 nM | GI50 [22]: 408 nM | TGI [22]: 8810 nM | GI50 [23]: 131 nM | TGI [23]: 266 nM | GI50 [24]: 302 nM | TGI [24]: 1420 nM | GI50 [25]: 225 nM | TGI [25]: 555 nM | GI50 [26]: 196 nM | TGI [26]: 359 nM | GI50 [27]: 336 nM | TGI [27]: 1310 nM | GI50 [28]: 374 nM | TGI [28]: 1680 nM | GI50 [29]: 740 nM | TGI [29]: 2540 nM | GI50 [30]: 386 nM | TGI [30]: 7580 nM | GI50 [31]: 175 nM | TGI [31]: 322 nM | GI50 [32]: 113 nM | TGI [32]: 236 nM | GI50 [33]: 208 nM | TGI [33]: 657 nM | GI50 [34]: 198 nM | TGI [34]: 409 nM | GI50 [35]: 766 nM | TGI [35]: 18100 nM | GI50 [36]: 169 nM | TGI [36]: 344 nM | GI50 [37]: 159 nM | TGI [37]: 306 nM | GI50 [38]: 235 nM | TGI [38]: 808 nM | GI50 [39]: 285 nM | TGI [39]: 1120 nM | GI50 [40]: 219 nM | TGI [40]: 823 nM | GI50 [41]: 114 nM | TGI [41]: 426 nM | GI50 [42]: 318 nM | TGI [42]: 1200 nM | GI50 [43]: 190 nM | TGI [43]: 368 nM | GI50 [44]: 234 nM | TGI [44]: 592 nM | GI50 [45]: 242 nM | TGI [45]: 1180 nM | GI50 [46]: 593 nM | TGI [46]: 1850 nM | GI50 [47]: 213 nM | TGI [47]: 1090 nM | GI50 [48]: 301 nM | TGI [48]: 1390 nM | GI50 [49]: 209 nM | TGI [49]: 419 nM | GI50 [50]: 400 nM | TGI [50]: 3850 nM | GI50 [51]: 543 nM | TGI [51]: 2120 nM | GI50 [52]: 255 nM | TGI [52]: 1260 nM | GI50 [53]: 348 nM | TGI [53]: 1200 nM | GI50 [54]: 150 nM | TGI [54]: 285 nM | GI50 [55]: 332 nM | TGI [55]: 1270 nM | GI50 [56]: 159 nM | TGI [56]: 333 nM

CN1CCC(COc2cnc(-c3cccc(Cn4nc(-c5cccc(C#N)c5)ccc4=O)c3)nc2)CC1
GI50 [1]: 2460 nM | TGI [1]: 5350 nM | GI50 [2]: 3200 nM | TGI [2]: 5670 nM | GI50 [4]: 2200 nM | TGI [4]: 4560 nM | GI50 [5]: 1590 nM | TGI [5]: 2930 nM | GI50 [8]: 1940 nM | TGI [8]: 3410 nM | GI50 [9]: 1480 nM | TGI [9]: 2850 nM | GI50 [10]: > 100000 nM | TGI [10]: > 100000 nM | GI50 [13]: 1690 nM | TGI [13]: 3220 nM | GI50 [14]: 1440 nM | TGI [14]: 2760 nM | GI50 [15]: 2040 nM | TGI [15]: 3620 nM | GI50 [17]: 1750 nM | TGI [17]: 3160 nM | GI50 [19]: 2090 nM | TGI [19]: 3530 nM | GI50 [24]: 2530 nM | TGI [24]: 5890 nM | GI50 [27]: 1450 nM | TGI [27]: 2940 nM | GI50 [31]: 1710 nM | TGI [31]: 3100 nM | GI50 [32]: 1570 nM | TGI [32]: 2910 nM | GI50 [35]: 2770 nM | TGI [35]: 6490 nM | GI50 [38]: 2170 nM | TGI [38]: 4160 nM | GI50 [39]: 1740 nM | TGI [39]: 3150 nM | GI50 [40]: 1720 nM | TGI [40]: 3400 nM | GI50 [41]: 1320 nM | TGI [41]: 2640 nM | GI50 [42]: 1730 nM | TGI [42]: 3200 nM | GI50 [46]: > 100000 nM | TGI [46]: > 100000 nM | GI50 [47]: 1680 nM | TGI [47]: 3360 nM | GI50 [50]: 2380 nM | TGI [50]: 4810 nM | GI50 [52]: 1960 nM | TGI [52]: 3770 nM | GI50 [53]: 2050 nM | TGI [53]: 3760 nM
